According to patent US11345681B1, “Inhibitors of fibroblast growth factor receptor kinases” (Kinnate Biopharma Inc., priority 2020, dated 2022):

These molecules were tested against Wild type FGFR2 (Homo sapiens (Human), UniProt P21802) (assay: FGFR2 kinase assay (fluorescence-based microfluidic mobility shift assay)). Conditions: wild type FGFR2 0.06 nM, 100 μM ATP, 80 minutes at room temperature; class symbols.
Type: biochemical

Chain of Wild type FGFR2 (P21802 22-821): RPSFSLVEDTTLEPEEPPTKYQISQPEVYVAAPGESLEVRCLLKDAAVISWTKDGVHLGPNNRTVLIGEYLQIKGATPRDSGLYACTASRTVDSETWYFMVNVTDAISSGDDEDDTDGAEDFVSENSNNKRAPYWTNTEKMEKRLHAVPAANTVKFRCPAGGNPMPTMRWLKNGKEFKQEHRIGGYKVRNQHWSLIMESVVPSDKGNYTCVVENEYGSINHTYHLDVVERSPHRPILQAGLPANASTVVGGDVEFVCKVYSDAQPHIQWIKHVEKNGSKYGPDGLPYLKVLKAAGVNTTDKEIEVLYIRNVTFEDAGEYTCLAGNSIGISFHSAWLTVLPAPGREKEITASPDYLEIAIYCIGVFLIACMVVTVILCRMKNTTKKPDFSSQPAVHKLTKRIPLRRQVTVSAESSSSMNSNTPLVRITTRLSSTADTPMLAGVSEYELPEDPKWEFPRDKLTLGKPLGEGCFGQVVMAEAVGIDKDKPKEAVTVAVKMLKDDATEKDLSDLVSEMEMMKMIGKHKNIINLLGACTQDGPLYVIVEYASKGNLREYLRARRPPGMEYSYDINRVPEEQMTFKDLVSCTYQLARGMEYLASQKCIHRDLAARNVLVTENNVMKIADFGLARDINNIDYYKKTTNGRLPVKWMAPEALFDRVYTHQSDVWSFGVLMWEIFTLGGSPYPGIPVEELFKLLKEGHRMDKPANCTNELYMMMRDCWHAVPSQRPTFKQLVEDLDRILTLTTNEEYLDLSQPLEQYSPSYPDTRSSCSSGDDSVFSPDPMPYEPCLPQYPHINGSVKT

| IC50 [nM] | Structure (SMILES) |
| --- | --- |
| ≤ 100 | C=CC(=O)N1C[C@@H](n2nc(C#Cc3cc4nc(C)n(CC)c4cc3Cl)c(C(N)=O)c2NC)C[C@@H]1COC [Example 33, 1-((3S,5R)-1-acryloyl-5-(methoxymethyl)pyrrolidin-3-yl)-3-((6-chloro-1-ethyl-2-methyl-1H-benzo[d]imidazol-5-yl)ethynyl)-5-(methylamino)-1H-pyrazole-4-carboxamide] |
| ≤ 100 | C=CC(=O)N1C[C@@H](n2nc(C#Cc3c(F)cc4c(nc(C)n4CC(F)(F)F)c3F)c(C(N)=O)c2NC)C[C@@H]1COC [Example 35, 1-((3S,5R)-1-acryloyl-5-(methoxymethyl)pyrrolidin-3-yl)-3-((4,6-difluoro-2-methyl-1-(2,2,2-trifluoroethyl)-1H-benzo[d]imidazol-5-yl)ethynyl)-5-(methylamino)-1H-pyrazole-4-carboxamide] |
| 100 to 1000 | C=CC(=O)N1C[C@@H](n2nc(C#Cc3ccc4ncn(CC)c4c3F)c(C(N)=O)c2NC)C[C@@H]1COC [Example 36, 3-[2-(3-ethyl-4-fluoro-1,3-benzodiazol-5-yl)ethynyl]-1-[(3S,5R)-5-(methoxymethyl)-1-(prop-2-enoyl)pyrrolidin-3-yl]-5-(methylamino)pyrazole-4-carboxamide] |
| ≤ 100 | C=CC(=O)N1C[C@@H](n2nc(C#Cc3cc4nc(C)n(CC)c4cc3F)c(C(N)=O)c2NC)C[C@@H]1COC [Example 37, 3-[2-(1-ethyl-6-fluoro-2-methyl-1,3-benzodiazol-5-yl)ethynyl]-1-[(3S,5R)-5-(methoxymethyl)-1-(Prop-2-enoyl)pyrrolidin-3-yl]-5-(methylamino)pyrazole-4-carboxamide] |
| ≤ 100 | C=CC(=O)N1C[C@@H](n2nc(C#Cc3ccc4c(nc(C)n4CC)c3Cl)c(C(N)=O)c2NC)C[C@@H]1COC [Example 38, 3-[2-(4-chloro-1-ethyl-2-methyl-1,3-benzodiazol-5-yl)ethynyl]-1-[(3S,5R)-5-(methoxymethyl)-1-(prop-2-enoyl)pyrrolidin-3-yl]-5-(methylamino)pyrazole-4-carboxamide] |
| 100 to 1000 | C=CC(=O)N1C[C@@H](n2nc(C#Cc3ccc4c(n3)nc(C)n4CC)c(C(N)=O)c2NC)C[C@@H]1COC [Example 39, 3-(2-[1-ethyl-2-methylimidazo[4,5-b]pyridin-5-yl]ethynyl)-1-[(3S,5R)-5-(methoxymethyl)-1-(prop-2-enoyl)pyrrolidin-3-yl]-5-(methylamino)pyrazole-4-carboxamide] |
| ≤ 100 | C=CC(=O)N1C[C@@H](n2nc(C#Cc3cc4ncn(C)c4cc3F)c(C(N)=O)c2NC)C[C@@H]1COC [Example 40, 3-[2-(6-fluoro-1-methyl-1,3-benzodiazol-5-yl)ethynyl]-1-[(3S,5)-5-(methoxymethyl)-1-(prop-2-enoyl)pyrrolidin-3-yl]-5-(methylamino)pyrazole-4-carboxamide] |
| 100 to 1000 | C=CC(=O)N1C[C@@H](n2nc(C#Cc3ccc4ncn(C)c4c3F)c(C(N)=O)c2NC)C[C@@H]1COC [Example 41, 3-[2-(4-fluoro-^-1-methyl-1,3-benzodiazol-5-yl)ethynyl]-1-[(3S,5R)-5-(methoxymethyl)-1-(prop-2-enoyl)pyrrolidin-3-yl]-(methylamino)pyrazole-4-carboxamide] |
| ≤ 100 | C=CC(=O)N1C[C@@H](n2nc(C#Cc3ccc4[nH]c(C5CC5)nc4c3)c(C(N)=O)c2NC)C[C@@H]1COC [Example 42, 3-[2-(2-cyclopropyl-1H-1,3-benzodiazol-5-yl)ethynyl]-1-[(3S,5R)-5-(methoxymethyl)-1-(prop-2-enoyl)pyrrolidin-3-yl]-5-(methylamino)pyrazole-4-carboxamide] |
| ≤ 100 | C=CC(=O)N1C[C@@H](n2nc(C#Cc3ccc4c(c3)nc(C3CC3)n4C)c(C(N)=O)c2NC)C[C@@H]1COC [Example 43, 3-[2-(2-cyclopropyl-1-methyl-1,3-benzodiazol-5-yl)ethynyl]-1-[(3S,5R)-5-(methoxymethyl)-1-(prop-2-enoyl)pyrrolidin-3-yl]-5-(methylamino)pyrazole-4-carboxamide] |
| ≤ 100 | C=CC(=O)N1C[C@@H](n2nc(C#Cc3ccc4c(C)noc4c3)c(C(N)=O)c2NC)C[C@@H]1COC [Example 44, 1-[(3S,5R)-5-(methoxymethyl)-1-(prop-2-enoyl)pyrrolidin-3-yl]-3-[2-(3-methyl-1,2-benzoxazol-6-yl)ethynyl]-5-(methylamino)pyrazole-4-carboxamide] |
| ≤ 100 | C=CC(=O)N1C[C@@H](n2nc(C#Cc3c(F)cc4c(nc(C5CC5)n4CC)c3F)c(C(N)=O)c2NC)C[C@@H]1COC [Example 45, 3-[2-(2-cyclopropyl-1-ethyl-4,6-difluoro-1,3-benzodiazol-5-yl)ethynyl]-1-[(3S,5R)-5-(methoxymethyl)-1-(prop-2-enoyl)pyrrolidin-3-yl]-5-(methylamino) pyrazole-4-carboxamide] |
| ≤ 100 | C=CC(=O)N1C[C@@H](n2nc(C#Cc3c(F)cc4[nH]c(C(F)(F)F)nc4c3F)c(C(N)=O)c2NC)C[C@@H]1COC [Example 46] |
| 100 to 1000 | C=CC(=O)N1C[C@@H](n2nc(C#Cc3cc4nc(C)n(CC)c4cn3)c(C(N)=O)c2NC)C[C@@H]1COC [Example 48, 3-(2-[3-Ethyl-2-methylimidazo[4,5-c]pyridin-6-yl]ethynyl)-1-[(3S,5R)-5-(methoxymethyl)-1-(prop-2-enoyl)pyrrolidin-3-yl]-5-(methylamino)pyrazole-4-carboxamide] |
| ≤ 100 | C=CC(=O)N1C[C@@H](n2nc(C#Cc3c(F)cc4c(nc(C5CC5)n4C)c3F)c(C(N)=O)c2NC)C[C@@H]1COC [Example 50, 3-[2-(2-Cyclopropyl-4,6-difluoro-1-methyl-1,3-benzodiazol-5-yl)ethynyl]-1-[(3S,5R)-5-(methoxymethyl)-1-(prop-2-enoyl)pyrrolidin-3-yl]-5-(methylamino)pyrazole-4-carboxamide] |
| ≤ 100 | C=CC(=O)N1C[C@@H](n2nc(C#Cc3ccc4c(nc(C5CC5)n4C)c3F)c(C(N)=O)c2NC)C[C@@H]1COC [Example 51, 1-((3S,5R)-1-Acryloyl-5-(methoxymethyl)pyrrolidin-3-yl)-3-((2-cyclopropyl-4-fluoro-1-methyl-1H-benzo[d]imidazol-5-yl)ethynyl)-5-(methylamino)-1H-pyrazole-4-carboxamide] |
| ≤ 100 | C=CC(=O)N1C[C@@H](n2nc(C#Cc3ccc4cccnc4c3)c(C(N)=O)c2NC)C[C@@H]1COC [Example 52, 1-[(3S,5R)-5-(Methoxymethyl)-1-(prop-2-enoyl)pyrrolidin-3-yl]-5-(methylamino)-3-[2-(quinolin-7-yl)ethynyl]pyrazole-4-carboxamide] |
| 100 to 1000 | C=CC(=O)N1C[C@@H](n2nc(C#Cc3ccn4nccc4n3)c(C(N)=O)c2NC)C[C@@H]1COC [Example 53, 1-[(3S,5R)-5-(Methoxymethyl)-1-(prop-2-enoyl)pyrrolidin-3-yl]-5-(methylamino)-3-(2-[pyrazolo[1,5-a]pyrimidin-5-yl]ethynyl)pyrazole-4-carboxamide] |
| ≤ 100 | C=CC(=O)N1C[C@@H](n2nc(C#Cc3ccn4ccnc4c3)c(C(N)=O)c2NC)C[C@@H]1COC [Example 54, 1-((3S,5R)-1-Acryloyl-5-(methoxymethyl)pyrrolidin-3-yl)-3-(imidazo[1,2-a]pyridin-7-ylethynyl)-5-(methylamino)-1H-pyrazole-4-carboxamide] |
| ≤ 100 | C=CC(=O)N1C[C@@H](n2nc(C#Cc3ccn4nccc4c3)c(C(N)=O)c2NC)C[C@@H]1COC [Example 56, 1-[(3S,5R)-5-(Methoxymethyl)-1-(prop-2-enoyl)pyrrolidin-3-yl]-5-(methylamino)-3-(2-[pyrazolo[1,5-a]pyridin-5-yl]ethynyl)pyrazole-4-carboxamide] |
| ≤ 100 | C=CC(=O)N1C[C@@H](n2nc(C#Cc3c(F)cc4[nH]c(C5CC5)nc4c3F)c(C(N)=O)c2NC)C[C@@H]1COC [Example 61, 3-[2-(2-Cyclopropyl-4,6-difluoro-1H-1,3-benzodiazol-5-yl)ethynyl]-1-[(3S,5R)-5-(methoxymethyl)-1-(prop-2-enoyl)pyrrolidin-3-yl]-5-(methylamino)pyrazole-4-carboxamide] |
| ≤ 100 | C=CC(=O)N1C[C@@H](n2nc(C#Cc3cc4nc(C5CC5)n(C)c4cc3F)c(C(N)=O)c2NC)C[C@@H]1COC [Example 62, 3-[2-(2-Cyclopropyl-6-fluoro-1-methyl-1,3-benzodiazol-5-yl)ethynyl]-1-[(3S,5R)-5-(methoxymethyl)-1-(prop-2-enoyl)pyrrolidin-3-yl]-5-(methylamino)pyrazole-4-carboxamide] |

Same assay, conditions: wild type FGFR2 0.06 nM, 100 μM ATP, 80 minutes at room temperature; given as numeric bound

| IC50 [nM] | Structure (SMILES) |
| --- | --- |
| > 500 | C=CC(=O)N1C[C@@H](n2nc(C#Cc3ccc4nccn4c3)c(C(N)=O)c2NC)C[C@@H]1COC [Example 55, 1-((3S,5R)-1-Acryloyl-5-(methoxymethyl)pyrrolidin-3-yl)-3-(imidazo[1,2-a]pyridin-6-ylethynyl)-5-(methylamino)-1H-pyrazole-4-carboxamide] |
| > 500 | C=CC(=O)N1C[C@@H](n2nc(C#Cc3cnc4nccn4c3)c(C(N)=O)c2NC)C[C@@H]1COC [Example 57, 3-(2-[Imidazo[1,2-a]pyrimidin-6-yl]ethynyl)-1-[(3S,5R)-5-(methoxymethyl)-1-(prop-2-enoyl)pyrrolidin-3-yl]-5-(methylamino)pyrazole-4-carboxamide] |
| > 500 | C=CC(=O)N1C[C@@H](n2nc(C#Cc3ccn4ccnc4n3)c(C(N)=O)c2NC)C[C@@H]1COC [Example 58, 3-(2-[Imidazo[1,2-a]pyrimidin-7-yl]ethynyl)-1-[(3S,5R)-5-(methoxymethyl)-1-(prop-2-enoyl)pyrrolidin-3-yl]-5-(methylamino)pyrazole-4-carboxamide] |
| > 500 | C=CC(=O)N1C[C@@H](n2nc(C#Cc3cc4nc(C5CC5)n(C)c4cn3)c(C(N)=O)c2NC)C[C@@H]1COC [Example 63, 3-(2-[2-Cyclopropyl-3-methylimidazo[4,5-c]pyridin-6-yl]ethynyl)-1-[(3S,5R)-5-(methoxymethyl)-1-(prop-2-enoyl)pyrrolidin-3-yl]-5-(methylamino)pyrazole-4-carboxamide] |
